Laboratory results taken from US11524968B2, “Heterocyclic compound as a protein kinase inhibitor” (HK inno.N Corporation, priority 2017, dated 2022).

Biological target: JAK1 (Homo sapiens (Human), UniProt P23458)
Assay: Analysis of JAK1 activity inhibition ability (ADP-Glo Kinase Assay)
Type: biochemical
Conditions: JAK1 enzyme, ADP-Glo luminescence, ATP 250 uM, IRS-itide substrate, 30° C. 40 minutes; read-out: IC50
How it was run: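 ADP-Glo luminescence read-out of ADP production, with IC50 taken as the concentration halving JAK1 activity relative to control. Enzyme was incubated 40 min at 30 °C with compound, IRS-itide (40 ng/mL) and ATP (250 uM), concentrations as prepared in pH 7.5 Tris-HCl/MgCl2/BSA/DTT buffer.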

Sequence of JAK1 (P23458 whole entry): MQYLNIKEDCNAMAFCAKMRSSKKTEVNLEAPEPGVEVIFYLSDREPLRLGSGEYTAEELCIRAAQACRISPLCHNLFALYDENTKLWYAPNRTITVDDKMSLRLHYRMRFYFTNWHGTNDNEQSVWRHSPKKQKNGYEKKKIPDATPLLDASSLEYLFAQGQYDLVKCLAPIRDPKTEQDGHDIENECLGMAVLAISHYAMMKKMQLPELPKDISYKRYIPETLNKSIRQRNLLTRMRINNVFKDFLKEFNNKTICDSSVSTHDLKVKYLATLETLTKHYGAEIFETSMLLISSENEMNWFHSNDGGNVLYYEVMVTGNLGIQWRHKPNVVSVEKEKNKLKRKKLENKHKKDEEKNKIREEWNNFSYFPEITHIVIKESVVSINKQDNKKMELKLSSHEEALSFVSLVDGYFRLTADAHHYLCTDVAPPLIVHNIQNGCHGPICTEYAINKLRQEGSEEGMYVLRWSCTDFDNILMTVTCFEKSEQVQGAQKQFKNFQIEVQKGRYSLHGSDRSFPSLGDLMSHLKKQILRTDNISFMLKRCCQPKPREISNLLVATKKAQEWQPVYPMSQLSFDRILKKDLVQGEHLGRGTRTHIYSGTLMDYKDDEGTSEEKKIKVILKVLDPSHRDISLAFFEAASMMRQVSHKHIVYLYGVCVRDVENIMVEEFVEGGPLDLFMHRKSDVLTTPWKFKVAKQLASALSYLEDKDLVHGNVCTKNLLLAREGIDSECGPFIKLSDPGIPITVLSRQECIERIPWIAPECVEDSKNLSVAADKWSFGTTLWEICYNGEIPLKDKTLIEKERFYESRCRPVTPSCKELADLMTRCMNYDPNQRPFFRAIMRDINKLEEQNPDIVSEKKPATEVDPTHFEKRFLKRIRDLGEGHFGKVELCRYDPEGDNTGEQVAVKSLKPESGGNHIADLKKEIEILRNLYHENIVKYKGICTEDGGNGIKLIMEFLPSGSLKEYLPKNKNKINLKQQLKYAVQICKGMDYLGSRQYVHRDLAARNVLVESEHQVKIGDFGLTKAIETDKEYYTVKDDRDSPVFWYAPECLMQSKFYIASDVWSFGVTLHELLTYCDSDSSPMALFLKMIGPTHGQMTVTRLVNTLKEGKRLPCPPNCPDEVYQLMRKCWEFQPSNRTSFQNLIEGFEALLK

| SMILES | IC50 [nM] |
| --- | --- |
| N#CCC(=O)N1CC=C(c2cc(NC(=O)C3CC3)nc3[nH]ccc23)CC1C(F)(F)F (stereo not drawn) [Example 393, N-(4-(1-(2-cyanoacetyl)-2-(trifluoromethyl)-1,2,3,6-tetrahydropyridin-4-yl)-1H-pyrrolo[2,3-b]pyridin-6-yl)cyclopropanecarboxamide] | < 20 |
| N#CCC(=O)N1C2C=C(c3cc(NC(=O)C4CC4)nc4[nH]ccc34)CC1CCC2 (stereo not drawn) [Example 394, N-(4-(9-(2-cyanoacetyl)-9-azabicyclo[3.3.1]non-2-en-3-yl)-1H-pyrrolo[2,3-b]pyridin-6-yl)cyclopropanecarboxamide] | < 20 |
| C[C@@H]1CN(C(=O)c2ccnc(F)c2)CC=C1c1cc(NC(=O)C2CC2)nc2[nH]ccc12 [Example 395, (S)—N-(4-(1-(2-fluoroisonicotinoyl)-3-methyl-1,2,3,6-tetrahydropyridin-4-yl)-1H-pyrrolo[2,3-b]pyridin-6-yl)cyclopropanecarboxamide] | < 20 |
| C[C@@H]1CN(C(=O)c2ccc([N+](=O)[O-])cc2)CC=C1c1cc(NC(=O)C2CC2)nc2[nH]ccc12 [Example 398, (S)—N-(4-(3-methyl-1-(4-nitrobenzoyl)-1,2,3,6-tetrahydropyridin-4-yl)-1H-pyrrolo[2,3-b]pyridin-6-yl)cyclopropanecarboxamide] | < 20 |
| C[C@@H]1CN(C(=O)c2ccc(Cl)nc2)CC=C1c1cc(NC(=O)C2CC2)nc2[nH]ccc12 [Example 400, (S)—N-(4-(1-(6-chloronicotinoyl)-3-methyl-1,2,3,6-tetrahydropyridin-4-yl)-1H-pyrrolo[2,3-b]pyridin-6-yl)cyclopropanecarboxamide] | < 20 |
| C[C@@H]1CN(C(=O)CCl)CC=C1c1cc(NC(=O)C2CC2)nc2[nH]ccc12 [Example 401, (S)—N-(4-(1-(2-chloroacetyl)-3-methyl-1,2,3,6-tetrahydropyridin-4-yl)-1H-pyrrolo[2,3-b]pyridin-6-yl)cyclopropanecarboxamide] | 20 to 200 |
| C[C@@H]1CN(C(=O)c2ccncc2F)CC=C1c1cc(NC(=O)C2CC2)nc2[nH]ccc12 [Example 402, (S)—N-(4-(1-(3-fluoroisonicotinoyl)-3-methyl-1,2,3,6-tetrahydropyridin-4-yl)-1H-pyrrolo[2,3-b]pyridin-6-yl)cyclopropanecarboxamide] | < 20 |
| C[C@@H]1CN(C(=O)C(C#N)=Cc2cccs2)CC=C1c1cc(NC(=O)C2CC2)nc2[nH]ccc12 [Example 403, (S)—N-(4-(1-(2-cyano-3-(thiophen-2-yl)acryloyl)-3-methyl-1,2,3,6-tetrahydropyridin-4-yl)-1H-pyrrolo[2,3-b]pyridin-6-yl)cyclopropanecarboxamide] | 20 to 200 |
| C[C@@H]1CN(C(=O)C(=Cc2ccccc2)CC#N)CC=C1c1cc(NC(=O)C2CC2)nc2[nH]ccc12 [Example 404, (S)—N-(4-(1-(2-(cyanomethyl)-3-phenylacryloyl)-3-methyl-1,2,3,6-tetrahydropyridin-4-yl)-1H-pyrrolo[2,3-b]pyridin-6-yl)cyclopropanecarboxamide] | 20 to 200 |
| C[C@@H]1CN(C(=O)CC2(C#N)CCCCC2)CC=C1c1cc(NC(=O)C2CC2)nc2[nH]ccc12 [Example 406, (S)—N-(4-(1-(2-(1-cyanocyclohexyl)acetyl)-3-methyl-1,2,3,6-tetrahydropyridin-4-yl)-1H-pyrrolo[2,3-b]pyridin-6-yl)cyclopropanecarboxamide] | < 20 |
| CC(C)=C(C#N)C(=O)N1CC=C(c2cc(NC(=O)C3CC3)nc3[nH]ccc23)[C@H](C)C1 [Example 408, (S)—N-(4-(1-(2-cyano-3-methylbut-2-enoyl)-3-methyl-1,2,3,6-tetrahydropyridin-4-yl)-1H-pyrrolo[2,3-b]pyridin-6-yl)cyclopropanecarboxamide] | 20 to 200 |
| CCC1C=C(c2cc(NC(=O)C3CC3)nc3[nH]ccc23)CC(CC)N1C(=O)CC#N (stereo not drawn) [Example 409, N-(4-(1-(2-cyanoacetyl)-2,6-diethyl-1,2,3,6-tetrahydropyridin-4-yl)-1H-pyrrolo[2,3-b]pyridin-6-yl)cyclopropanecarboxamide] | < 20 |
| CCCC1C=C(c2cc(NC(=O)C3CC3)nc3[nH]ccc23)CCN1C(=O)CC#N (stereo not drawn) [Example 411, N-(4-(1-(2-cyanoacetyl)-6-propyl-1,2,3,6-tetrahydropyridin-4-yl)-1H-pyrrolo[2,3-b]pyridin-6-yl)cyclopropanecarboxamide] | 20 to 200 |
| CCC1CC(c2cc(NC(=O)C3CC3)nc3[nH]ccc23)=CCN1C(=O)CC#N (stereo not drawn) [Example 413, N-(4-(1-(2-cyanoacetyl)-2-ethyl-1,2,3,6-tetrahydropyridin-4-yl)-1H-pyrrolo[2,3-b]pyridin-6-yl)cyclopropanecarboxamide] | < 20 |
| N#CCC(=O)N1CC=C(c2cc(NC(=O)C3CC3)nc3[nH]ccc23)CC12CCC2 [Example 414, N-(4-(5-(2-cyanoacetyl)-5-azaspiro[3.5]non-7-en-8-yl)-1H-pyrrolo[2,3-b]pyridin-6-yl)cyclopropanecarboxamide] | < 20 |
| CC[C@@H]1C=C(c2cc(NC(=O)C3CC3)nc3[nH]ccc23)CCN1C(=O)CC#N [Example 416, (R)—N-(4-(1-(2-cyanoacetyl)-6-ethyl-1,2,3,6-tetrahydropyridin-4-yl)-1H-pyrrolo[2,3-b]pyridin-6-yl)cyclopropanecarboxamide] | < 20 |
| N#CCC(=O)N1C=C(c2cc(NC(=O)C3CC3)nc3[nH]ccc23)CCC1 [Example 419, N-(4-(1-(2-cyanoacetyl)-1,4,5,6-tetrahydropyridin-3-yl)-1H-pyrrolo[2,3-b]pyridin-6-yl)cyclopropanecarboxamide] | > 200 |
| N#CCC(=O)N1CCC=C(c2cc(NC(=O)C3CC3)nc3[nH]ccc23)C1 [Example 420, N-(4-(1-(2-cyanoacetyl)-1,2,5,6-tetrahydropyridin-3-yl)-1H-pyrrolo[2,3-b]pyridin-6-yl)cyclopropanecarboxamide] | 20 to 200 |
| N#CCCC(=O)N1CCC=C(c2cc(NC(=O)C3CC3)nc3[nH]ccc23)C1 [Example 421, N-(4-(1-(3-cyanopropanoyl)-1,2,5,6-tetrahydropyridin-3-yl)-1H-pyrrolo[2,3-b]pyridin-6-yl)cyclopropanecarboxamide] | 20 to 200 |
| N#CCC(=O)N1CC=C(c2cc(NC(=O)C3CC3)nc3[nH]ccc23)CCC1 [Example 422, N-(4-(1-(2-cyanoacetyl)-2,5,6,7-tetrahydro-1H-azepin-4-yl)-1H-pyrrolo[2,3-b]pyridin-6-yl)cyclopropanecarboxamide] | < 20 |

Now from value to compound:

| IC50 [nM] | SMILES |
| --- | --- |
| 20 to 200 | CC1CN(C(=O)c2ccnc(C#N)c2)CC=C1c1cc(NC(=O)C2CC2)nc2[nH]ccc12 (stereo not drawn) [Example 392, N-(4-(1-(2-cyanoisonicotinoyl)-3-methyl-1,2,3,6-tetrahydropyridin-4-yl)-1H-pyrrolo[2,3-b]pyridin-6-yl)cyclopropanecarboxamide] |
| < 20 | C[C@@H]1CN(C(=O)c2ccnc(F)c2F)CC=C1c1cc(NC(=O)C2CC2)nc2[nH]ccc12 [Example 396, (S)—N-(4-(1-(2,3-difluoroisonicotinoyl)-3-methyl-1,2,3,6-tetrahydropyridin-4-yl)-1H-pyrrolo[2,3-b]pyridin-6-yl)cyclopropanecarboxamide] |
| < 20 | C[C@@H]1CN(C(=O)c2cccc(Br)c2)CC=C1c1cc(NC(=O)C2CC2)nc2[nH]ccc12 [Example 397, (S)—N-(4-(1-(3-bromobenzoyl)-3-methyl-1,2,3,6-tetrahydropyridin-4-yl)-1H-pyrrolo[2,3-b]pyridin-6-yl)cyclopropanecarboxamide] |
| < 20 | C[C@@H]1CN(C(=O)c2ccnc(Cl)c2)CC=C1c1cc(NC(=O)C2CC2)nc2[nH]ccc12 [Example 399, (S)—N-(4-(1-(2-chloroisonicotinoyl)-3-methyl-1,2,3,6-tetrahydropyridin-4-yl)-1H-pyrrolo[2,3-b]pyridin-6-yl)cyclopropanecarboxamide] |
| > 200 | C[C@@H]1CN(C(=O)c2cccn(C)c2=O)CC=C1c1cc(NC(=O)C2CC2)nc2[nH]ccc12 [Example 405, (S)—N-(4-(3-methyl-1-(1-methyl-2-oxo-1,2-dihydropyridine-3-carbonyl)-1,2,3,6-tetrahydropyridin-4-yl)-1H-pyrrolo[2,3-b]pyridin-6-yl)cyclopropanecarboxamide] |
| 20 to 200 | C[C@@H]1CN(C(=O)C2(C#N)CCOCC2)CC=C1c1cc(NC(=O)C2CC2)nc2[nH]ccc12 [Example 407, (S)—N-(4-(1-(4-cyanotetrahydro-2H-pyran-4-carbonyl)-3-methyl-1,2,3,6-tetrahydropyridin-4-yl)-1H-pyrrolo[2,3-b]pyridin-6-yl)cyclopropanecarboxamide] |
| < 20 | CC(C)C1CC(c2cc(NC(=O)C3CC3)nc3[nH]ccc23)=CCN1C(=O)CC#N (stereo not drawn) [Example 410, N-(4-(1-(2-cyanoacetyl)-2-isopropyl-1,2,3,6-tetrahydropyridin-4-yl)-1H-pyrrolo[2,3-b]pyridin-6-yl)cyclopropanecarboxamide] |
| < 20 | CC(C)(C)C1C=C(c2cc(NC(=O)C3CC3)nc3[nH]ccc23)CCN1C(=O)CC#N (stereo not drawn) [Example 412, N-(4-(6-(tert-butyl)-1-(2-cyanoacetyl)-1,2,3,6-tetrahydropyridin-4-yl)-1H-pyrrolo[2,3-b]pyridin-6-yl)cyclopropanecarboxamide] |
| < 20 | C[C@@H]1CN(C(=O)CC2(C#N)CC2)CC=C1c1cc(NC(=O)C2CC2)nc2[nH]ccc12 [Example 415, (S)—N-(4-(1-(2-(1-cyanocyclopropyl)acetyl)-3-methyl-1,2,3,6-tetrahydropyridin-4-yl)-1H-pyrrolo[2,3-b]pyridin-6-yl)cyclopropanecarboxamide] |
| > 200 | N#CCCC(=O)N1C=C(c2cc(NC(=O)C3CC3)nc3[nH]ccc23)CCC1 [Example 418, N-(4-(1-(3-cyanopropanoyl)-1,4,5,6-tetrahydropyridin-3-yl)-1H-pyrrolo[2,3-b]pyridin-6-yl)cyclopropanecarboxamide] |
